In US5686424A, “2-oxoethyl derivatives as immunosuppressants” (Miles Inc., priority 1995, dated 1997):

What was measured:
human T-cells = assay: Suppression of Human T-Cell Proliferation Assay (PHA-stimulated, [3H]-thymidine incorporation); type: cell-based; conditions: concentration inhibiting [3H]-thymidine incorporation of PHA-stimulated T-cells by 50%, 72 hours; TABLE 2; read-out: IC50
How it was run: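 SRBC-rosette-purified human peripheral T-cells stimulated with PHA-M (40 μg/ml stock) and compound dilutions, in duplicate, for 72 h at 37° C. Proliferation measured by [3H]-thymidine incorporation during the final 6 h, read by liquid scintillation counting.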

[1] = test system: graft versus host response; assay: Mouse Lymph Node Assay for Modulation of Graft versus Host Response; type: in vivo; conditions: mice, 100 mg/kg per day intraperitoneal, after 7 days; popliteal lymph nodes, C57 B1/6-injected limb divided by BDF1-injected limb
From the text: 4) Graft versus Host Assay
Transfer of parental strain T-cells (the graft) into F1 hybrid animals (the host) major different with respect to gene products of the histocompatibility complex (MHC) causes a GVHR. This reaction results from recognition of host allogeneic MHC gene products by specific clones of graft T-cells.
When given systemically in sufficient numbers, the graft T-cells cause a progressive, generally fatal, wasting syndrome. A local, nonfatal GVHR, marked by enlargement of the draining popliteal lymph nodes, ensues when graft T-cells are administered via the footpad as described by Ford et al., 1970, Transplantation 10:258. The GVHR is regarded as a correlate of allograft rejections where specific T-cells of either host or allograft origin are activated after recognition of allogeneic MHC gene products, leading to an immune inflammatory response which ultimately results in the destruction (rejection) of the allograft.
Mouse Lymph Node Assay for Modulation of Graft versus Host Response […]
After 7 days, the draining popliteal lymph nodes from the hind limbs were dissected out and weighed. The magnitude of the GVHR was expressed as the ratio of the mean weight of lymph nodes from the limb injected with semi-allogeneic C57 B1/6 cells divided by the mean weight of lymph nodes from the limb injected with syngeneic BDF1 cells.

FKBP = FKBP (Homo sapiens, UniProt P62942); assay: PPIase Inhibition Assay; type: biochemical; conditions: concentration of inhibitor required for 50% inhibition of enzyme activity; FKBP, substrate Succinyl-Ala-Phe-Pro-Phe-para-nitroanilide; TABLE I
FKBP, sequence (P62942 whole entry): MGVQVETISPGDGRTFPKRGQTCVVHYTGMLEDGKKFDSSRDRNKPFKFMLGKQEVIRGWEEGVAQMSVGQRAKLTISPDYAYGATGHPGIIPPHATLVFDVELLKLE
How it was run: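 Chymotrypsin-coupled isomerization of Succinyl-Ala-Phe-Pro-Phe-para-nitroanilide by FKBP in ice-cold 25 mM HEPES pH 7.8, 100 mM NaCl, compound in DMSO. A390 followed 90 sec; first-order rate constants give % activity remaining after subtracting uncatalyzed rate; IC50 by linear regression of V-/V+ versus concentration.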

IC50 (FKBP): 0.06 µM
Compound: CC[C@H](C)[C@H](NC(=O)[C@@H]1CCCN1CC(=O)C12CC3CC(CC(C3)C1)C2)C(=O)NCc1ccccc1 [Example 24, L-Isoleucine, N-[1-(2-Adamantan-1-yl-2-Oxoethyl)-L-Prolyl] Benzylamide]
IC50 (human T-cells): 12 µM | Lymph Node Weight Ratio [1]: 1.2
